Measurements taken from patent US7230157B1, “Chemical inducible promoter used to obtain transgenic plants with a silent marker and organisms and cells and methods of using same for screening for mutations” (The Rockefeller University, priority 1998, dated 2007).

How the values were obtained:
tobacco leaf disks = assay: Shoot regeneration from tobacco leaf disks transfected with XVE-CKI1; format: cell-based; details: no externally applied plant hormones
Excerpt: In addition to the GVG-ipt, pER8-CKI1 (XVE-CKI1) has been used to transfect tobacco leaf disks.

tobacco root cells = assay: Shoot regeneration from tobacco root cells transformed with XVE-CKI1; format: cell-based
Excerpt: The XVE-CKI1 vector was also used to transform tobacco root cells. […] The explants were transferred to fresh MBC medium (with or without the inducer) every two weeks. […] The explants grown in the presence of inducer formed green callus. […] This experiment used the same number of root explants with inducer as without inducer. Since 65 calli formed with inducer and only 49 without inducer, overexpression of CKI1 may also increase the efficiency of callus formation.

[1] = tested on: Arabidopsis root explants; assay: Regeneration of Arabidopsis root explants transfected with XVE-CKI1; details: MIC medium with 5 μM 17-β-estradiol
tobacco leaf discs = assay: DEX-dependent regeneration and Luc activity of tobacco leaf discs transfected with pTA7002G/ipt/luc; format: cell-based, Nicotiana tabacum; details: for Percentage of LUC^+ regenerants / Total number of regenerants per 28 explants: Tobacco
Experimental: Nicotiana tabacum seeds cultivar SR1 were surface sterilized in 30% commercial bleach containing 0.02% Tween 20 for 10 minutes and washed five times with sterile water. Plants were grown in a tissue culture room at 22° C. at 16 hour light and 8 hour dark cycles. Tobacco transformation was essentially as described by Horsch et al. (1985) and Klee et al. (1987). Leaf discs were prepared from young leaves of four week old plants and the explants were cultured for two days on MB medium (MS salts, B5 vitamins, 20 g/L sucrose, 20 mg/L acetosyringone, 0.2% phytagel, pH 5.7). […] After 20 to 40 days of culturing, regenerated shoots were excised from explants and cultured on MS medium containing IAA to induce root regeneration.
(§1) The explants were transferred to fresh medium every two weeks to maintain constant culture conditions.
(§2) The transformation cassette pTA7002G/ipt/luc (FIG. 12) contained a luc gene under the control of the CaMV 35S promoter (Millar et al., 1992; Benfey and Chua, 1990). Luc activity was measured in order to estimate the number of transgenic shoots using the video imaging system described by Michelet and Chua (1996). Measurements were integrated over 5 minutes and the corresponding background was subtracted from the images (FIGS. 9A-F). Approximately 50% of the regenerants expressed the luc gene (Table 2).
To further characterize the transformation system, we examined the effects of the duration of induction as well as the effects of exogenously applied phytohormones. Time course experiments were performed to determine whether the specificity of the induction of the ipt gene decreases over time due to overproduction and diffusion of cytokinin, which could trigger regeneration events in neighboring, non-transformed cells. […] No significant difference in the percentage of regenerants with detectable Luc activity was found over time. After 20 days, 46% of regenerants had detectable Luc activity and after both 30 and 40 days 53% of regenerants had detectable Luc activity. […] Similar results have been obtained with lettuce.
No significant difference in luciferase activity occurred at different auxin concentrations. At 1.0 mg/mL auxin 45% of regenerants had detectable Luc activity, at 1.5 mg/mL auxin 58% of regenerants had detectable Luc activity, and at 2.0 mg/mL auxin 47% of regenerants had detectable Luc activity.

lettuce leaf disks = assay: DEX-dependent regeneration and Luc activity of lettuce leaf disks transfected with pTA7002G/ipt/luc; format: cell-based, Lactuca sativa; details: DEX 10 μM
Experimental: Sterilized lettuce […] (Lactuca sativa var. Great Lake #118) were germinated and the seedlings were grown as described for tobacco. Transformation of lettuce leaf discs was performed as described by Curtis et al. (1996) with the exception that cytokinin was omitted from the culture media.
as §1, §2

Compound: C[C@]12CC[C@@H]3c4ccc(O)cc4CC[C@H]3[C@@H]1CC[C@@H]2O [17-β-estradiol]
- time of shoot initiation after induction (tobacco leaf disks): 25 to 35 days
- time of shoot initiation after induction (tobacco root cells; 5 μM 17-β-estradiol): 40 to 50 days
- white/brown calli that became green and produced shoots (tobacco root cells; MBC medium with 5 μM 17-β-estradiol): 13 out of 65
- time of culture until small dark green callus appears [1]: about 10 days
- time of culture until small shoots appear [1]: about 15 days

Compound: C[C@@H]1C[C@H]2[C@@H]3CCC4=CC(=O)C=C[C@]4(C)[C@@]3(F)[C@@H](O)C[C@]2(C)[C@@]1(O)C(=O)CO [DEX, dexamethasone]
- regenerants with detectable Luc activity (tobacco leaf discs; 10 μM DEX, after 20 days of induction, 54 regenerants): 46%
- regenerants with detectable Luc activity (tobacco leaf discs; 10 μM DEX, after 30 days of induction): 53%
- regenerants with detectable Luc activity (tobacco leaf discs; 10 μM DEX, after 40 days of induction): 53%
- Percentage of LUC^+ regenerants (tobacco leaf discs; DEX 0.1 μM): 29
- Total number of regenerants per 28 explants (tobacco leaf discs; DEX 0.1 μM): 139
- Percentage of LUC^+ regenerants (tobacco leaf discs; DEX 1 μM): 44
- Total number of regenerants per 28 explants (tobacco leaf discs; DEX 1 μM): 129
- Percentage of LUC^+ regenerants (tobacco leaf discs; DEX 10 μM): 49
- Percentage of LUC^+ regenerants (lettuce leaf disks): 46
- Total number of regenerants per 28 explants (lettuce leaf disks): 198

Compound: auxin
- regenerants with detectable Luc activity (tobacco leaf discs; 10 μM DEX, 40 days): 45%
- regenerants with detectable Luc activity (tobacco leaf discs; 1.5 mg/mL auxin and 10 μM DEX, 40 days): 58%
- regenerants with detectable Luc activity (tobacco leaf discs; 2.0 mg/mL auxin and 10 μM DEX, 40 days): 47%
